The results in this text go back to PMC4715436, “The role of 2,4-dihydroxyquinoline (DHQ) in Pseudomonas aeruginosa pathogenicity” (PeerJ, 2016).

Data set [1] has as its target T1, PqsR (Pseudomonas aeruginosa, UniProt Q9I4X0). Kind of data set: STD-NMR titration ([…] to […] DHQ, […] SUMO-PqsR-C87); EMSA also gave an apparent Kd of […]. In kind it is binding. More on the design: gene mvfR. On the technique in general: Mobility shift assays separate free from complexed probe on a gel.
Target sequence in this assay (Q9I4X0 87-332): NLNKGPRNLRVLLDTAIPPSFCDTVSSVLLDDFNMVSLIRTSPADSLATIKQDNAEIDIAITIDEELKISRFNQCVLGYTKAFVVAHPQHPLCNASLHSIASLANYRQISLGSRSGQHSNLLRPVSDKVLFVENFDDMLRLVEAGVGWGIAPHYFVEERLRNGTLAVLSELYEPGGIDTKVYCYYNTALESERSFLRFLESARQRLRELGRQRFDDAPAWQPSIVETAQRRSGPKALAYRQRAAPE
The target of data set [2] is T1, PqsR. In words: EMSA with lysate of E. coli Rosetta expressing His-SUMO-PqsR and biotinylated pqsA promoter DNA, semi-quantitative apparent Kd. In kind it is biochemical. On the set-up: gene mvfR; recombinant PqsR, N-terminal His-tagged SUMO fusion.
Target sequence in this assay (Q9I4X0 whole entry, the tested form may be a part): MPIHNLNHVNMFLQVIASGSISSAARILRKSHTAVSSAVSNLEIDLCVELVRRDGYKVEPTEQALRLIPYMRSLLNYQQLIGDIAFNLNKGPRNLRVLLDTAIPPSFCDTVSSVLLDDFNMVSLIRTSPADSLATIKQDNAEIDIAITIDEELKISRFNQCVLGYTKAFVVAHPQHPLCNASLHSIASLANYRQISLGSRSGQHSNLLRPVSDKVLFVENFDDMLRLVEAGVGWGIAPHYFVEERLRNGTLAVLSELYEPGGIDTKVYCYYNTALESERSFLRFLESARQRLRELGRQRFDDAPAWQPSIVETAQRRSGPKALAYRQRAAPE
Data set [3] has as its system His-SUMO-PqsR (Pseudomonas aeruginosa (PAO1?)). Kind of data set: EMSA.

Turning to `Oc1cc(O)c2ccccc2n1` [DHQ, 2,4-dihydroxyquinoline], the Kd on PqsR [1] was around 450 nM.

Turning to `CCCCCCCc1[nH]c2ccccc2c(=O)c1O` [PQS, 2-heptyl-3-hydroxy-4-quinolone], the Kd on PqsR [2] was 33 nM.

For Bio-pqsA (pqsA' promoter probe), the binding signal (fraction free probe) in data set [3] is 0.0488.
